Here are results for two compounds from patent US11523986B2, “Intranasally administered antihistamines and uses thereof” (priority 2019, dated 2022).

Data set [1] can be described thus: in vitro. To be noted: human, DPBS pH 7.4, 120 min, 37° C., diphenhydramine 100 μM, atenolol 100 μM, caffeine 50 μM co-dosed.
Description: (§1) EpiAirway™ tissues, plated in 24-well plates, and accompanying culture medium and assay buffer solutions, were purchased from MatTek Corporation (Ashland, Mass.). According to the EpiAirway™ AIR-100 Use Protocol provided by MatTek, the tissues were returned to culture immediately upon receipt. In a tissue culture hood, using sterile technique, 1.0 mL of cold medium (AIR-100-ASY) was dispensed into each well of the 6-well plate (n=3) and one tissue insert was transferred to each of the wells. The apical surface of the tissue was exposed to the air (no medium was added to the insert). The tissues were equilibrated overnight at 37° C. in a 5% CO2 incubator. The culture medium was then replaced with fresh, pre-warmed medium until use.
(§2) The unidirectional permeation experiment was conducted according to protocol 18APCIP2 and relevant SOPs of Absorption Systems. Prior to the permeability assay, the culture medium in the plate was aspirated; and ˜1 mL of Dulbecco's phosphate-buffered saline (DPBS) was added to the well to remove any remaining residue of culture medium from the underside of the insert. The tissues were transferred to a 24-well plate with DPBS (750 μL) in each well as receiver, and dosing solution (400 μL) was added to each insert. A 100 μL aliquot was immediately removed as the 0-minute donor sample. Receiver samples (200 μL) were collected at 30, 60, and 120 minutes, replaced with an equal volume of fresh pre-warmed blank buffer at 30 and 60 minutes. The donor side was sampled (100 μL) at 0 and 120 minutes. The assay plate was placed in a humidified CO2 incubator at 37° C. during the assay period.
(§3) After 120 minutes, the tissues were rinsed with DPBS and gently dried with tissue wipes after aspiration of the assay buffer. The insert membranes with tissues attached were carefully removed from the insert apparatus, placed in a tared centrifuge tube, and weighed.
(§4) The apparent permeability coefficient (Papp) and recovery were calculated as follows: Papp=(dCr/dt)×Vr/(A×Cini) (1) Recovery (%)=[((Cr,final×Vr)+(Cd,final×Vd))/(Cini×Vd)]×100 (2) Recovery (%)=[((Cr,final×Vr)+(Cd,final×Vd)+(Tissue Accumulation))/(Cini×Vd)]×100 (3)
(§5) where, • dCr/dt is the slope of cumulative receiver concentration vs. time in μM s^−1; • Vr is the volume of the receiver compartment; • Vd is the volume of the donor compartment; • A is the diffusional area of the membrane; • Cini is the donor concentration at 0 minutes in μM; • CD, final is the donor concentration at 120 minutes in μM; • Cr, final is the receiver concentration at 120 minutes in μM.
(§6) With DPBS, pH 7.4 used on both the donor and receiver sides, permeability was initiated with addition of 0.4 mL of dosing solution into the inserts and of 0.75 mL of blank buffer into the wells of the assay plate. The assay was performed for 120 minutes in a humidified incubator at 37° C.
Data set [2] relates to EpiAirway tissues. To be noted: EpiAirway tissues after 120 min, 100 μM.
Description: as §1, §2, §3, §4, §5, §6
In data set [3] the test system is rhinovirus colds. The settings on record: intranasal, phosphate buffer vehicle, patients; Gaffney et al. 1987; cited from earlier work.

With `Cn1c(=O)c2c(ncn2C)n(C)c1=O` [Caffeine, caffeine], the apparent permeability from apical to basolateral (Papp A→B) at 120 min in data set [1] (pH 7.4, Papp (10^−6 cm/s) Average ± SD, apical dosing, average) stood at 29.1 ×10⁻⁶ cm/s; in data set [1] (pH 7.4, Papp (10^−6 cm/s) R1, apical dosing, replicate R1) it was 30.9 ×10⁻⁶ cm/s; in data set [1] (pH 7.4, Papp (10^−6 cm/s) R2, apical dosing, replicate R2), 28.2 ×10⁻⁶ cm/s; in data set [1] (pH 7.4, Papp (10^−6 cm/s) R3, apical dosing, replicate R3), 28.2 ×10⁻⁶ cm/s.
For the compound `CN(C)CCOC(c1ccccc1)c1ccccc1` [Diphenhydramine, diphenhydramine], the “Tissue Accumulation (nmol/mg) Average ± SD” value in data set [2] (average) was 0.212 ± 0.0222 nmol/mg. Moreover, the “Tissue Accumulation (nmol/mg) R1” value in data set [2] (replicate R1) worked out at 0.188 nmol/mg. Also, the “Tissue Accumulation (nmol/mg) R3” value in data set [2] (replicate R3) was determined as 0.218 nmol/mg. The “therapeutic effect in reducing signs and symptoms of rhinovirus colds” value in data set [3] is reported as “no therapeutic effect”.

Broadly, the Papp A→B is the apparent permeability from the apical to the basolateral side of a cell layer. A higher Papp A→B goes with ready permeation.
